Test results: US20260315653A1, “ANTICOAGULANT COMPOSITIONS COMPRISING ANTI-PLATELET AND ANTI-INFLAMMATORY DRUGS AND METHODS AND DEVICES FOR THEIR USE” (Elixir Medical Corporation, priority 2023, published 2026)
Entries after “also recorded” stand apart in the source; their conditions may differ.

How the values were obtained:
[1] = test system: blood clotting (citrated sheep blood); assay: Activated clotting time (ACT) in citrated sheep blood (Example 2); conditions: single drug, 0.6 ng/mg
Method: The activated clotting time (ACT) evaluation of anticoagulants was performed in calcium citrate sheep blood and recorded employing the Hemochron® Response device.
The ACT measurements were made in citrated sheep blood. 1.9 ml of citrated sheep blood was added to a test tube containing an activator (Hemochron@Celite@ ACT tubes, Lot F8FTE026 from Accriva Diagnostics, Inc.). A target amount of drug solution was then added into the test tube. The test tube was gently swirled so that the blood and drug was well-mixed. 0.1 ml of 0.3M calcium chloride was then added. The tube was gently shaken before being inserted into the Hemochron Response detector. The ACT read out was recorded and reported. The ACT of the control blood in the absence of any drug as first determined to establish a baseline. Then ACT was determined in the presence of different concentrations of the drug as a single component. Selected drug combinations were then tested to evaluate for potential synergy in action between the two drugs.

[2] = test system: blood clotting (citrated sheep blood); assay: Net activated clotting time (net ACT) in citrated sheep blood (Examples 3-5); set-up: key: seconds; measured ACT minus blood control ACT (165 s); conditions: single drug, blood control 165 seconds
Method: The activated clotting time (ACT) evaluation of anticoagulants was performed in calcium citrate sheep blood and recorded employing the Hemochron® Response device. The ACT measurements were made in citrated sheep blood. 1.9 ml of citrated sheep blood was added to a test tube containing an activator (Hemochron@Celite@ ACT tubes, Lot F8FTE026 from Accriva Diagnostics, Inc.). A target amount of drug solution was then added into the test tube. The test tube was gently swirled so that the blood and drug were well-mixed. 0.1 ml of 0.3M calcium chloride was then added. The tube was gently shaken before being inserted into the Hemochron Response detector. The ACT read out was recorded and reported. The ACT of the control blood in the absence of any drug as first determined to establish a baseline. Here the blood control measured is 165 seconds. Then ACT was determined in the presence of different concentrations of the drug as a single component. In the following study, the net ACT (measured ACT minus blood control ACT) was utilized to visualize the synergistic effect of direct factor Xa inhibitor (Rivaroxaban) and direct factor IIa inhibitor (Argatroban) drug combinations. The figures are presented in ng/mg wherein the density of blood and tissue are approximately the same.
Example 4 is the continuation of example 3, which employed the same method as in example 3. The only difference is that the direct factor Xa inhibitor Edoxaban is used in place of direct factor Xa inhibitor Rivaroxaban.
Example 5 is the continuation of example 3, which employed the same method as in example 3. The only difference is that the direct factor Xa inhibitor Betrixaban is used in place of direct factor Xa inhibitor Rivaroxaban.

[3] = In vivo drug release from / drug remaining on implanted stents (HPLC); set-up: species or system porcine; conditions: 7 days, n = 5
Method: The percentage and/or amount of each anticoagulant drug for or by each time point indicated were analyzed for each stent from the different devices in the example and the average drug tissue concentration reported.
Tissue concentrations and the amount of drug released from the stents were measured using stents implanted in porcine arteries for the drugs as indicated. The arteries at the designated time point were excised and a length of stented artery spanning from 5 mm proximal to the stented segment to 5 mm distal to the stented segment was cut. The stented artery was cut longitudinally with surgical scissors. The stents were separated from the tissue. The tissue content of each drug was analyzed using liquid chromatography mass spectroscopy (LCMS) and reported as a mean for each of the timepoint indicated. For drug remaining on each stent, each drug was extracted from the stent, measured using HPLC, and reported as a mean for each of the timepoint indicated as drug released or drug remaining on a stent (where drug remaining is equal to 100% minus the percentage of drug released).

[4] = test system: platelets (Tissue factor generated antiplatelet); conditions: cited from earlier work
[5] = test system: blood clotting (heparinized sheep blood); assay: Net ACT initiated by platelet activation factor (PAF) and CaCl2 in heparinized sheep blood (Examples 6-11); conditions: single drug, 0.05 ng/mg; PAF & CaCl2; blood control 235 seconds
Method: In order to examine the potential synergistic effects between anti-inflammatory agents, direct factor Xa inhibitors, direct factor IIa inhibitors, antiplatelets (P2Y12 inhibitor and glycoprotein IIb/IIIa inhibitor, platelet activation factor and CaCl2 were utilized by measuring ACT. Heparinized sheep blood was used to preserve platelet function.
The activated clotting time (ACT) evaluation initiated by platelet activation factor (PAF) and calcium chloride (CaCl2) was performed in heparinized sheep blood and recorded employing the Hemochron® Response device. […] A target amount of drug solution was then added into the test tube. The test tube was gently swirled so that the blood and drug were well-mixed. […] The tube was gently shaken before being inserted into the Hemochron Response detector. The ACT read out was recorded and reported. The ACT of the control heparinized sheep blood in the absence of any drug as first measured to establish a baseline. […] Then ACT was measured in the presence of different concentrations of the drug measured. Selected drug combinations were then tested to evaluate for potential synergy in action between the drug combination. The net ACT (ACT minus blood control ACT) was utilized to visualize the synergistic effect. […] The figures are presented in ng/mg wherein the density of blood and tissue are approximately the same.

porcine coronary artery = assay: In vivo porcine coronary stent implantation: fibrin score and late lumen loss (Examples 25-26); conditions: for inhibition of fibrin formation compared to control: Table 10, 7 days and 28 days
Method: The drug eluting stent systems containing different anticoagulants prepared as described in Example 11 were evaluated at 3 hours, 6 hours, 1 day, 3 days, 6 days, 7 days, or 28 days following implantation in a porcine coronary artery model.
The porcine model was chosen as this model has been used extensively for stent and angioplasty studies resulting in a large volume of data on the vascular response properties and its correlation to human vascular response (Schwartz et al, Circulation. 2002; 106:1867 1873). The animals were housed and cared for in accordance with the Guide for the Care and Use of Laboratory Animals as established by the National Research Council.
After induction of anesthesia, the left or right femoral artery was accessed using standard techniques and an arterial sheath was introduced and advanced into the artery. Vessel angiography was performed under fluoroscopic guidance, a 7 Fr. guide catheter was inserted through the sheath and advanced to the appropriate location where intracoronary nitroglycerin was administered. An appropriate implantation segment of coronary artery was randomly selected and a 0.014″ guidewire inserted. Quantitative Coronary Angiography (QCA) was performed to document the results. The appropriately size stent was advanced to the deployment site. The balloon was inflated at a steady rate to a pressure sufficient to achieve a balloon to artery ratio of approximately 1.1 to 1.0.
Follow up angiography was performed at the designated timepoint for each of the animals. Late lumen loss (LLL) can be expressed as: […]
The LLL is an indicator of the amount smooth muscle cell (SMC) proliferation or inhibition. It is used to measure efficacy between drugs for SMC proliferation inhibition. The smaller the LLL, the better the efficacy of the drug.
Stented portions of coronary arteries were embedded in methyl methacrylate (MMA), then divided into a target of at least three blocks of approximately similar lengths for histology evaluation. Quantitative histopathological evaluation of stented artery sections was then performed and scored as indicated. For Fibrin formation, scores ranged from 0 to 3, with a score of 0 indicating absent or rare minimal spotting around struts of the stent, a score of 1 indicating the presence of fibrin in small amounts localized only around the struts, a score of 2 indicating the moderately abundant or denser presence of fibrin around and extending beyond the struts, and a score of 3 indicating the presence of abundant and dense fibrin and/or bridging of the fibrin between the struts. The mean score was calculated and reported. The mean of each section was then averaged to provide a mean fibrin score per stent. The smaller the fibrin score, the better efficacy.

Row | SMILES | ACT [1] | net ACT ([2]; 0.15 ng/mg) | net ACT ([2]; 0.3 ng/mg) | Cumulative Percent Release of drug: Rivaroxaban [3] | Cumulative Percent Release of drug: Rivaroxaban ([3]; listed as Rivamomaban) | IC50 [4] | IC50 for Tissue factor generated antiplatelet [4] | net ACT [5] | inhibition of fibrin formation compared to bare metal control stents (porcine coronary artery; Table 9, day 7) | inhibition of fibrin formation compared to control (porcine coronary artery) | inhibition of fibrin formation compared to control (porcine coronary artery; listed as Rivamomaban)
1 | COc1ccc(-n2nc(C(N)=O)c3c2C(=O)N(c2ccc(N4CCCCC4=O)cc2)CC3)cc1 [Apixaban] | 522 |  |  |  |  |  |  |  |  |  | 
2 | O=C(NC[C@H]1CN(c2ccc(N3CCOCC3=O)cc2)C(=O)O1)c1ccc(Cl)s1 [Rivaroxaban] |  | 114 | 139 | at least 88.9% | at least 99.7% | 312 nM | 0.136 ng/mg | 166 s | effective at inhibiting fibrin formation | effective at inhibiting fibrin formation compared to control at 7 days and at 28 days when it was released at a faster rate and/or at a larger dose; also recorded: not effective at inhibiting fibrin formation compared to control at 28 days when it was released at a slower rate and/or at a smaller dose; also recorded: more effective at inhibiting fibrin formation compared to control at 7 days and at 28 days; also recorded: not effective at inhibiting fibrin formation compared to control at 28 days | more effective at inhibiting fibrin formation compared to control at 7 days and at 28 days
